{"source": "patent US5281603A", "about": "“Angiotensin II receptor blocking 2,3,6 substituted quinazolinones” (American Cyanamid Company, priority 1993, dated 1994)", "tested_on": "Angiotensin II vasopressor response", "assay": "AII challenge: antagonism of angiotensin II vasopressor response in conscious spontaneously hypertensive rats", "assay_type": "in vivo, rat (Male Okamoto-Aoki SHR)", "settings": "10 mg/kg I.V.; for % Inhibition / Average Change: SHR n=2; for Response After AII / Change / Control Before AII: individual SHR", "text": "By administering a compound of this invention to a rat, and then challenging with angiotensin II, a blockage of the vasopressor response is realized.\nConscious Male Okamoto-Aoki SHR, 16-20 weeks old, weighing approximately 330 g are purchased from Charles River Labs (Wilmington, Mass.). Conscious rats are restrained in a supine position with elastic tape. The area at the base of the tail is locally anesthetized by subcutaneous infiltration with 2% procaine. The ventral caudal artery and vein are isolated, and a cannula made of polyethylene (PE) 10-20 tubing (fused together by heat) is passed into the lower abdominal aorta and vena cava, respectively. The cannula is secured, heparinized (1,000 I.U./ml), sealed and the wound is closed. The animals are placed in plastic restraining cages in an upright position. The cannula is attached to a Statham P23Db pressure transducer, and pulsatile blood pressure is recorded to 10-15 minutes with a Gould Brush recorder. (Chan et al., (Drug Development Res., 18:75-94, 1989).\nAngiotensin II (human sequence, Sigma Chem. Co., St. […] Then a test compound, vehicle or a known angiotensin II antagonist is administered i.v., i.p. or orally to each set of rats. The two doses of angiotensin II are given to each rat again at 30, 60, 90, 120, 180, 240 and 300 minutes post dosing the compound or vehicle. The vasopressor response of angiotensin II is measured for the increase in systolic blood pressure in mmHg. The percentage of antagonism or blockade of the vasopressor response of angiotensin II by a compound is calculated using the vasopressor response (increase in systolic blood pressure) of angiotensin II of each rat predosing the compound as 100%. A compound is considered active if at 30 mg/kg i.v. it antagonized at least 50% of the response.", "key": {"[1]": {"settings": "AII 0.05 mcg/kg IV, 30 min post dose"}, "[2]": {"settings": "AII 0.05 mcg/kg IV, 60 min post dose"}, "[3]": {"settings": "AII 0.05 mcg/kg IV, 90 min post dose"}, "[4]": {"settings": "AII 0.05 mcg/kg IV, 120 min post dose"}, "[5]": {"settings": "AII 0.05 mcg/kg IV, 180 min post dose"}, "[6]": {"settings": "AII 0.05 mcg/kg IV, 240 min post dose"}, "[7]": {"settings": "AII 0.05 mcg/kg IV, 300 min post dose"}, "[8]": {"settings": "AII 0.1 mcg/kg IV, 30 min post dose"}, "[9]": {"settings": "AII 0.1 mcg/kg IV, 60 min post dose"}, "[10]": {"settings": "AII 0.1 mcg/kg IV, 90 min post dose"}, "[11]": {"settings": "AII 0.1 mcg/kg IV, 120 min post dose"}, "[12]": {"settings": "AII 0.1 mcg/kg IV, 180 min post dose"}, "[13]": {"settings": "AII 0.1 mcg/kg IV, 240 min post dose"}, "[14]": {"settings": "AII 0.1 mcg/kg IV, 300 min post dose"}, "[15]": {"settings": "AII 0.05 mcg/kg IV, 30 min post dose, 10 mg/kg"}, "[16]": {"settings": "AII 0.05 mcg/kg IV, 60 min post dose, 10 mg/kg"}, "[17]": {"settings": "AII 0.05 mcg/kg IV, 90 min post dose, 10 mg/kg"}, "[18]": {"settings": "AII 0.05 mcg/kg IV, 120 min post dose, 10 mg/kg"}, "[19]": {"settings": "AII 0.05 mcg/kg IV, 180 min post dose, 10 mg/kg"}, "[20]": {"settings": "AII 0.05 mcg/kg IV, 240 min post dose, 10 mg/kg"}, "[21]": {"settings": "AII 0.05 mcg/kg IV, 300 min post dose, 10 mg/kg"}, "[22]": {"settings": "AII 0.1 mcg/kg IV, 30 min post dose, 10 mg/kg"}, "[23]": {"settings": "AII 0.1 mcg/kg IV, 60 min post dose, 10 mg/kg"}, "[24]": {"settings": "AII 0.1 mcg/kg IV, 90 min post dose, 10 mg/kg"}, "[25]": {"settings": "AII 0.1 mcg/kg IV, 120 min post dose, 10 mg/kg"}, "[26]": {"settings": "AII 0.1 mcg/kg IV, 180 min post dose, 10 mg/kg"}, "[27]": {"settings": "AII 0.1 mcg/kg IV, 240 min post dose, 10 mg/kg"}, "[28]": {"settings": "AII 0.1 mcg/kg IV, 300 min post dose, 10 mg/kg"}}, "note": "“And” between values parts separate entries of the source, which are not always exact repeats. Identical values can stand only once."}
{"smiles": "CCCCc1nc2ccc(C3=NN[C@H]4C(=O)N(C)C(=O)[C@@H]34)cc2c(=O)n1Cc1ccc(-c2ccccc2-c2nnn[nH]2)cc1", "note": "(relative stereo) [Example 7]", "values": [{"measurement": "% Inhibition", "setting": "[1]", "value": 57, "unit": "%"}, {"measurement": "Average Change", "setting": "[1]", "value": 20, "unit": "mmHg"}, {"measurement": "% Inhibition", "setting": "[2]", "value": 57, "unit": "%"}, {"measurement": "Average Change", "setting": "[2]", "value": 20, "unit": "mmHg"}, {"measurement": "% Inhibition", "setting": "[3]", "value": 57, "unit": "%"}, {"measurement": "Average Change", "setting": "[3]", "value": 20, "unit": "mmHg"}, {"measurement": "% Inhibition", "setting": "[4]", "value": 62, "unit": "%"}, {"measurement": "Average Change", "setting": "[4]", "value": 17.5, "unit": "mmHg"}, {"measurement": "% Inhibition", "setting": "[5]", "value": 67, "unit": "%"}, {"measurement": "Average Change", "setting": "[5]", "value": 15, "unit": "mmHg"}, {"measurement": "% Inhibition", "setting": "[6]", "value": 62, "unit": "%"}, {"measurement": "Average Change", "setting": "[6]", "value": 17.5, "unit": "mmHg"}, {"measurement": "% Inhibition", "setting": "[7]", "value": 24, "unit": "%"}, {"measurement": "Average Change", "setting": "[7]", "value": 35, "unit": "mmHg"}, {"measurement": "% Inhibition", "setting": "[8]", "value": 50, "unit": "%"}, {"measurement": "Average Change", "setting": "[8]", "value": 27.5, "unit": "mmHg"}, {"measurement": "% Inhibition", "setting": "[9]", "value": 58, "unit": "%"}, {"measurement": "Average Change", "setting": "[9]", "value": 23, "unit": "mmHg"}, {"measurement": "% Inhibition", "setting": "[10]", "value": 59, "unit": "%"}, {"measurement": "Average Change", "setting": "[10]", "value": 22.5, "unit": "mmHg"}, {"measurement": "% Inhibition", "setting": "[11]", "value": 67, "unit": "%"}, {"measurement": "Average Change", "setting": "[11]", "value": 18, "unit": "mmHg"}, {"measurement": "% Inhibition", "setting": "[12]", "value": 50, "unit": "%"}, {"measurement": "Average Change", "setting": "[12]", "value": 27.5, "unit": "mmHg"}, {"measurement": "% Inhibition", "setting": "[13]", "value": 55, "unit": "%"}, {"measurement": "Average Change", "setting": "[13]", "value": 25, "unit": "mmHg"}, {"measurement": "% Inhibition", "setting": "[14]", "value": 54, "unit": "%"}, {"measurement": "Average Change", "setting": "[14]", "value": 25.5, "unit": "mmHg"}, {"measurement": "Response After AII", "setting": "[1]", "value": 240, "unit": "mmHg"}, {"measurement": "Change", "setting": "[15]", "value": "15 mmHg and 25 mmHg"}, {"measurement": "Control Before AII", "setting": "[15]", "value": "150 mmHg and 215 mmHg"}, {"measurement": "Response After AII", "setting": "[15]", "value": 165, "unit": "mmHg"}, {"measurement": "Change", "setting": "[16]", "value": "15 mmHg and 25 mmHg"}, {"measurement": "Control Before AII", "setting": "[16]", "value": "145 mmHg and 215 mmHg"}, {"measurement": "Response After AII", "setting": "[16]", "value": "160 mmHg and 240 mmHg"}, {"measurement": "Response After AII", "setting": "[3]", "value": 230, "unit": "mmHg"}, {"measurement": "Change", "setting": "[17]", "value": "40 mmHg and 0 mmHg"}, {"measurement": "Control Before AII", "setting": "[17]", "value": "135 mmHg and 230 mmHg"}, {"measurement": "Response After AII", "setting": "[17]", "value": 175, "unit": "mmHg"}, {"measurement": "Response After AII", "setting": "[4]", "value": 160, "unit": "mmHg"}, {"measurement": "Change", "setting": "[18]", "value": "20 mmHg and 15 mmHg"}, {"measurement": "Control Before AII", "setting": "[18]", "value": "140 mmHg and 200 mmHg"}, {"measurement": "Response After AII", "setting": "[18]", "value": 215, "unit": "mmHg"}, {"measurement": "Change", "setting": "[19]", "value": "25 mmHg and 5 mmHg"}, {"measurement": "Control Before AII", "setting": "[19]", "value": "140 mmHg and 205 mmHg"}, {"measurement": "Response After AII", "setting": "[19]", "value": "165 mmHg and 210 mmHg"}, {"measurement": "Change", "setting": "[20]", "value": "25 mmHg and 10 mmHg"}, {"measurement": "Control Before AII", "setting": "[20]", "value": "135 mmHg and 190 mmHg"}, {"measurement": "Response After AII", "setting": "[20]", "value": "160 mmHg and 200 mmHg"}, {"measurement": "Change", "setting": "[7]", "value": 35, "unit": "mmHg"}, {"measurement": "Control Before AII", "setting": "[21]", "value": "140 mmHg and 190 mmHg"}, {"measurement": "Response After AII", "setting": "[21]", "value": "175 mmHg and 225 mmHg"}, {"measurement": "Change", "setting": "[22]", "value": "20 mmHg and 35 mmHg"}, {"measurement": "Control Before AII", "setting": "[22]", "value": "140 mmHg and 215 mmHg"}, {"measurement": "Response After AII", "setting": "[22]", "value": "160 mmHg and 250 mmHg"}, {"measurement": "Change", "setting": "[23]", "value": "15 mmHg and 31 mmHg"}, {"measurement": "Control Before AII", "setting": "[23]", "value": "145 mmHg and 224 mmHg"}, {"measurement": "Response After AII", "setting": "[23]", "value": "160 mmHg and 255 mmHg"}, {"measurement": "Change", "setting": "[24]", "value": "25 mmHg and 20 mmHg"}, {"measurement": "Control Before AII", "setting": "[24]", "value": "140 mmHg and 215 mmHg"}, {"measurement": "Response After AII", "setting": "[24]", "value": "165 mmHg and 235 mmHg"}, {"measurement": "Response After AII", "setting": "[11]", "value": 160, "unit": "mmHg"}, {"measurement": "Change", "setting": "[25]", "value": "25 mmHg and 11 mmHg"}, {"measurement": "Control Before AII", "setting": "[25]", "value": "135 mmHg and 214 mmHg"}, {"measurement": "Response After AII", "setting": "[25]", "value": 225, "unit": "mmHg"}, {"measurement": "Change", "setting": "[26]", "value": "35 mmHg and 20 mmHg"}, {"measurement": "Control Before AII", "setting": "[26]", "value": "140 mmHg and 195 mmHg"}, {"measurement": "Response After AII", "setting": "[26]", "value": "175 mmHg and 215 mmHg"}, {"measurement": "Change", "setting": "[27]", "value": "35 mmHg and 15 mmHg"}, {"measurement": "Control Before AII", "setting": "[27]", "value": "140 mmHg and 190 mmHg"}, {"measurement": "Response After AII", "setting": "[27]", "value": "175 mmHg and 205 mmHg"}, {"measurement": "Change", "setting": "[28]", "value": "40 mmHg and 11 mmHg"}, {"measurement": "Control Before AII", "setting": "[28]", "value": "140 mmHg and 205 mmHg"}, {"measurement": "Response After AII", "setting": "[28]", "value": "180 mmHg and 216 mmHg"}]}
